In US6753424B1, “Conjugates of DNA interacting groups with steroid hormones for use as nucleic acid transfection agents” (priority 1998, dated 2004):

Columns and labels:
[1] = tested on: GR-GFP chimera; assay: Nuclear Transfer Induction assay (NTI), diurethane ligands, CV-1 cells; type: cell-based; settings: 4 hr
Description: Conditions: CV-1 cells are transiently transfected with DOTAP (Boehringer-Mannheim) with an expression vector encoding a GR-GFP chimera (see 8.1). After 36 hours expression, ligand is added for 4 hr and cells are fixed and counted as given in 8.1.

[2] = tested on: GR-GFP chimera; assay: Nuclear Transfer Induction assay (NTI), monourethane ligands, HeLa cells; type: cell-based; settings: 1 hr
Description: Conditions: HeLa cells are transiently transfected by CaPO4 with an expression vector encoding a GR-GFP chimera (5 μg in transfection cocktail, 4 cm diameter dishes, DMEM with 3% FCS). After 24 hour expression, ligand is added for 1 hr and cells are fixed with formaldehyde (5 min 4° C.) and inspected by fluorescence microscopy. Fluorescent cells are counted and divided into different classes according to ‘cytoplasmic’ (C) versus ‘nuclear’ (N) localisation of fluorescence.
First column: “Conditions”: Name of compounds added (marked at top: ‘//ligand’), and their concentration (in parentheses) and assay number (01 through 21).
Values are given as percentage of cells displaying the corresponding localisatidn, within each tested condition the sum is 100%.

[3] = tested on: HUH-7 cells; assay: Transfection enhancement, CMV-LacZ reporter, HUH-7 cells; type: cell-based, human; parameters: key to net: net = (RLU:protein)×1000 − 600 (mock transfection level)
Description: Conditions: HUH-7 cells are human hepatoma cells that contain substantial amounts of glucocorticoid receptor. The cells are transfected with an expression vector that is constitutively expressing the reporter gene LacZ (CMV-LacZ). Transfection conditions and analysis of LacZ reporter are the same as described in Example 7 legend. Transfection is performed O/N and after rinsing of the precipitate the cells are further incubated for 24 hours. LacZ levels are determined from cell extracts with a chemiluminescence LacZ enzyme assay (Galactolight plus, Tropix). The relative luminescence from each extract is given. Each value represents an individual extract. “Induction”: relative reporter gene activity (values divided by value of assay in lane 9, true negative control for DNA liganding). rel/RLU=(RLU:protein)×1000; net=rel/RLU−600 (600=rel/RLU value approximately corresponding to rel/RLU value of mock transfection).

SMILES	C < N, percentage of cells ([1]; ligand 5.10-6M) [%]	C << N, percentage of cells ([1]; ligand 5.10-6M) [%]	C = N, percentage of cells ([1]; ligand 5.10-6M) [%]	C > N, percentage of cells ([1]; ligand 5.10-6M) [%]	C >> N, percentage of cells ([1]; ligand 5.10-6M) [%]	C < N, percentage of cells ([1]; ligand 5.10-7M) [%]	C << N, percentage of cells ([1]; ligand 5.10-7M) [%]	C = N, percentage of cells ([1]; ligand 5.10-7M) [%]	C > N, percentage of cells ([1]; ligand 5.10-7M) [%]	C >> N, percentage of cells ([1]; ligand 5.10-7M) [%]	C < N, percentage of cells ([2]; ligand 1.10-7M) [%]	C << N, percentage of cells ([2]; ligand 1.10-7M) [%]	C = N, percentage of cells ([2]; ligand 1.10-7M) [%]	C > N, percentage of cells ([2]; ligand 1.10-7M) [%]	C >> N, percentage of cells ([2]; ligand 1.10-7M) [%]	C < N, percentage of cells ([2]; ligand 1.10-6M) [%]	C << N, percentage of cells ([2]; ligand 1.10-6M) [%]	C = N, percentage of cells ([2]; ligand 1.10-6M) [%]	C > N, percentage of cells ([2]; ligand 1.10-6M) [%]	C >> N, percentage of cells ([2]; ligand 1.10-6M) [%]	further results
Cc1oc2c(C)c3oc(=O)cc(C)c3cc2c1CNC(=O)OCCCCCCCCCCCNC(=O)OCC(=O)[C@@]1(O)[C@H](C)CC2C3CCC4=CC(=O)C=CC4(C)[C@@]3(F)C(O)CC21C (stereo partly shown) [DEX-C11-Pso]	53.1	45	1.9	0	0	14.8	0	58.3	25.7	1.3	–	–	–	–	–	–	–	–	–	–	C < N, percentage of cells ([1]; ligand 5.10-8M): 1.9%; C << N, percentage of cells ([1]; ligand 5.10-8M): 0%; C = N, percentage of cells ([1]; ligand 5.10-8M): 52.9%; C > N, percentage of cells ([1]; ligand 5.10-8M): 37.1%; C >> N, percentage of cells ([1]; ligand 5.10-8M): 8.1%; C < N, percentage of cells ([1]; ligand 5.10-9M): 3.6%; C << N, percentage of cells ([1]; ligand 5.10-9M): 0%; C = N, percentage of cells ([1]; ligand 5.10-9M): 34.2%; C > N, percentage of cells ([1]; ligand 5.10-9M): 52.9%; C >> N, percentage of cells ([1]; ligand 5.10-9M): 9.4%
Cc1oc2c(C)c3oc(=O)cc(C)c3cc2c1CNC(=O)OCCCCCCNC(=O)OCC(=O)[C@@]1(O)[C@H](C)CC2C3CCC4=CC(=O)C=CC4(C)[C@@]3(F)C(O)CC21C (stereo partly shown) [DEX-C6-Pso]	10	90	0	0	0	6	94	0	0	0	–	–	–	–	–	–	–	–	–	–	C < N, percentage of cells ([1]; ligand 5.10-8M): 29.4%; C << N, percentage of cells ([1]; ligand 5.10-8M): 60.8%; C = N, percentage of cells ([1]; ligand 5.10-8M): 9.8%; C > N, percentage of cells ([1]; ligand 5.10-8M): 0%; C >> N, percentage of cells ([1]; ligand 5.10-8M): 0%; C < N, percentage of cells ([1]; ligand 5.10-9M): 38.3%; C << N, percentage of cells ([1]; ligand 5.10-9M): 22.6%; C = N, percentage of cells ([1]; ligand 5.10-9M): 35.7%; C > N, percentage of cells ([1]; ligand 5.10-9M): 3.5%; C >> N, percentage of cells ([1]; ligand 5.10-9M): 0%
COC(=O)CCNC(=O)OCC(=O)[C@@]1(O)[C@H](C)CC2C3CCC4=CC(=O)C=CC4(C)[C@@]3(F)C(O)CC21C (stereo partly shown) [DEX-C3-COOCH3, 2-carboxymethyl-ethyl-1-carboxamicacid-dexamethasone-21-ester]	–	–	–	–	–	–	–	–	–	–	25	75	0	0	0	–	–	–	–	–	C < N, percentage of cells ([2]; ligand 1.10-8M): 22%; C << N, percentage of cells ([2]; ligand 1.10-8M): 78%; C = N, percentage of cells ([2]; ligand 1.10-8M): 0%; C > N, percentage of cells ([2]; ligand 1.10-8M): 0%; C >> N, percentage of cells ([2]; ligand 1.10-8M): 0%
CC12CCC(=O)C=C1CCC1C2C(O)CC2(C)C1CC[C@]2(O)C(=O)COC(=O)NCCC(=O)O (stereo partly shown) [CL-C3-COOH, 2-carboxy-ethyl-1-carboxamicacid-cortisol-21-ester]	–	–	–	–	–	–	–	–	–	–	2	0	43	55	0	13	0	85	2	0	–
CC1CC2C3CCC4=CC(=O)C=CC4(C)C3(F)C(O)CC2(C)C1(O)C(=O)COC(=O)NCCOC(=O)NCCCNCCCCNCCCN (stereo not shown) [DEX-C4-Sn]	27.6	69.5	2.9	0	0	4.6	0.6	67.4	15.4	12	–	–	–	–	–	–	–	–	–	–	C < N, percentage of cells ([1]; ligand 5.10-8M): 1.1%; C << N, percentage of cells ([1]; ligand 5.10-8M): 0%; C = N, percentage of cells ([1]; ligand 5.10-8M): 43.3%; C > N, percentage of cells ([1]; ligand 5.10-8M): 35.8%; C >> N, percentage of cells ([1]; ligand 5.10-8M): 19.8%; C < N, percentage of cells ([1]; ligand 5.10-9M): 0%; C << N, percentage of cells ([1]; ligand 5.10-9M): 0%; C = N, percentage of cells ([1]; ligand 5.10-9M): 28.5%; C > N, percentage of cells ([1]; ligand 5.10-9M): 43.8%; C >> N, percentage of cells ([1]; ligand 5.10-9M): 27.7%
COC(=O)CCCCCCCCCCNC(=O)OCC(=O)[C@@]1(O)[C@H](C)CC2C3CCC4=CC(=O)C=CC4(C)[C@@]3(F)C(O)CC21C (stereo partly shown) [DEX-C11-COOCH3, 10-carboxymethyl-n-decyl-1-carboxamicacid-dexamethasone-21-ester]	–	–	–	–	–	–	–	–	–	–	61	7	29	3	0	50	45	5	0	0	–
C[C@@H]1C[C@H]2[C@@H]3CCC4=CC(=O)C=C[C@]4(C)[C@@]3(F)[C@@H](O)C[C@]2(C)[C@@]1(O)C(=O)CO [DEX, Dexamethasone, reference compound]	0.5	99.5	0	0	0	1	99	0	0	0	30	67	3	0	0	29	71	0	0	0	RLU ([3]; ligand 10-6, HUH-7): 238837; net ([3]; ligand 10-6, HUH-7): 185; rel/RLU ([3]; ligand 10-6, HUH-7): 314.7; net ([3]; ligand 10-7, HUH-7): 227; rel/RLU ([3]; ligand 10-7, HUH-7): 357.3; C < N, percentage of cells ([1]; ligand 5.10-8M): 5%; C << N, percentage of cells ([1]; ligand 5.10-8M): 95%; C = N, percentage of cells ([1]; ligand 5.10-8M): 0%; C > N, percentage of cells ([1]; ligand 5.10-8M): 0%; C >> N, percentage of cells ([1]; ligand 5.10-8M): 0%; C < N, percentage of cells ([1]; ligand 5.10-9M): 42.1%; C << N, percentage of cells ([1]; ligand 5.10-9M): 57.5%; C = N, percentage of cells ([1]; ligand 5.10-9M): 0.3%; C > N, percentage of cells ([1]; ligand 5.10-9M): 0%; C >> N, percentage of cells ([1]; ligand 5.10-9M): 0%
COC(=O)CCCCCCCCCCNC(=O)OCC(=O)[C@@]1(O)CCC2C3CCC4=CC(=O)CCC4(C)C3C(O)CC21C (stereo partly shown) [CL-C11-COOCH3, 10-carboxymethyl-n-decy-1-carboxamicacid-cortisol-21-ester]	–	–	–	–	–	–	–	–	–	–	20	0	55	20	5	60	13	24	3	0	–
COC(=O)CCNC(=O)OCC(=O)[C@@]1(O)CCC2C3CCC4=CC(=O)CCC4(C)C3C(O)CC21C (stereo partly shown) [CL-C3-COOCH3, 2-carboxymethyl-ethyl-1-carboxamicacid-cortisol-21-ester]	–	–	–	–	–	–	–	–	–	–	50	18	21	1	0	55	42	2	1	0	–
